Assay results as given in ChEMBL document CHEMBL4177631, “Polyhydroxylated azetidine iminosugars: Synthesis, glycosidase inhibitory activity and molecular docking studies” (Bioorg Med Chem Lett, 2017).
Active and inactive are the calls of the source. No cut-off for these calls is given here.

Assays:
Alpha-glucosidase = target: T1, Alpha-glucosidase (Aspergillus niger, UniProt P56526); assay: Inhibition of Aspergillus niger alpha-glucosidase using p-nitrophenyl-alpha-D-glucopyranoside as substrate preincubated for 1 hr followed by substrate addition measured after 10 mins by spectrophotometric method
T1 sequence (P56526 whole entry): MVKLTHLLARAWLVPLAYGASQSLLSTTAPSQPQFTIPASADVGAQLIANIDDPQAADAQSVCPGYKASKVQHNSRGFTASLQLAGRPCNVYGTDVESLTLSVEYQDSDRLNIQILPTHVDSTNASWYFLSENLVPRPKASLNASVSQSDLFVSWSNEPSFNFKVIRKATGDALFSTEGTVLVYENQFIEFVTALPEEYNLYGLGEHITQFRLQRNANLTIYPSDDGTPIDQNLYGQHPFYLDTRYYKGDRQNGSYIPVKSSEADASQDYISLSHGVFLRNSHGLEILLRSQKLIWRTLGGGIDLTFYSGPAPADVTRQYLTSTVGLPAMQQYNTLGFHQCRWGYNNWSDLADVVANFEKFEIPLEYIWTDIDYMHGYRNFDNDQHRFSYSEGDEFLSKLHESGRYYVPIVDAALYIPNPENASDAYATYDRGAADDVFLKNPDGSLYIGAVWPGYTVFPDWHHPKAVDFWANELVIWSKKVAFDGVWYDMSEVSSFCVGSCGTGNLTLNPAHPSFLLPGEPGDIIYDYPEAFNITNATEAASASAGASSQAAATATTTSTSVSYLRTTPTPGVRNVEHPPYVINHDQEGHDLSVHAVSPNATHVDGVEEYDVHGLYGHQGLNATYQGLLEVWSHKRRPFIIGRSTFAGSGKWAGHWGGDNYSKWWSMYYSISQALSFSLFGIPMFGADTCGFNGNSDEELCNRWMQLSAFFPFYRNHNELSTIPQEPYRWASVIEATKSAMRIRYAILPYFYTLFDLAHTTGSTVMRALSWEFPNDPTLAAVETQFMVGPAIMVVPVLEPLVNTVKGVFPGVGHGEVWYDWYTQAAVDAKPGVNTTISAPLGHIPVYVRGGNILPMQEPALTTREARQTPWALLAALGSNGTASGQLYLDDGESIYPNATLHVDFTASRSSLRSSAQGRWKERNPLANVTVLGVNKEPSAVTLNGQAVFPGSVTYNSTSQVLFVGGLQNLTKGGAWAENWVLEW

[1] = Inhibition of Aspergillus niger amyloglucosidase using starch as substrate after 10 mins by Miller method
[2] = target: T2, Alpha-galactosidase (Escherichia coli) (UniProt P16551); assay: Inhibition of Escherichia coli alpha-galactosidase at 1 mM using p-nitrophenyl-alpha-D-galactopyranoside as substrate preincubated for 1 hr followed by substrate addition measured after 10 mins by spectrophotometric method
T2 sequence (whole entry): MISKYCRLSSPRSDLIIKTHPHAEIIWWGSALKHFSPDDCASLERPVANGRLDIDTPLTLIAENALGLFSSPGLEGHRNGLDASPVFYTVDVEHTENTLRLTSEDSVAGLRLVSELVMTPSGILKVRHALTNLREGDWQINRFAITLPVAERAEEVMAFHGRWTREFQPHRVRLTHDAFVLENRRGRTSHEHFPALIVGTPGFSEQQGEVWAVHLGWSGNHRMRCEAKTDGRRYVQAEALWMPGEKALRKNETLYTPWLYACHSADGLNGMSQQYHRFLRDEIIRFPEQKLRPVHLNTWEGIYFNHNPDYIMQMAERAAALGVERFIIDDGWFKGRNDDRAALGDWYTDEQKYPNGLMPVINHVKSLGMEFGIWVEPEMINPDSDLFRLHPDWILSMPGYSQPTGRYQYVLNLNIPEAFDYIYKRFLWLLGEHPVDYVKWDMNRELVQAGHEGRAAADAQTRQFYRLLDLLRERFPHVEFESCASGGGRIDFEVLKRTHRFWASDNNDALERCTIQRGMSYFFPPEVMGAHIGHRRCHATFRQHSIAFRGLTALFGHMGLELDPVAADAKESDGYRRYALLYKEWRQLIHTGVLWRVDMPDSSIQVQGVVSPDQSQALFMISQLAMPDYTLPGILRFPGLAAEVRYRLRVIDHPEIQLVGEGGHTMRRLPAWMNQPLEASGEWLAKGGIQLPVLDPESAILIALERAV

Alpha-mannosidase = target: T3, Alpha-mannosidase (Canavalia ensiformis, UniProt C0HJB3); assay: Inhibition of Canavalia ensiformis alpha-mannosidase using p-nitrophenyl-alpha-D-mannopyranoside as substrate preincubated for 1 hr followed by substrate addition measured after 10 mins by spectrophotometric method
T3 sequence (C0HJB3 whole entry): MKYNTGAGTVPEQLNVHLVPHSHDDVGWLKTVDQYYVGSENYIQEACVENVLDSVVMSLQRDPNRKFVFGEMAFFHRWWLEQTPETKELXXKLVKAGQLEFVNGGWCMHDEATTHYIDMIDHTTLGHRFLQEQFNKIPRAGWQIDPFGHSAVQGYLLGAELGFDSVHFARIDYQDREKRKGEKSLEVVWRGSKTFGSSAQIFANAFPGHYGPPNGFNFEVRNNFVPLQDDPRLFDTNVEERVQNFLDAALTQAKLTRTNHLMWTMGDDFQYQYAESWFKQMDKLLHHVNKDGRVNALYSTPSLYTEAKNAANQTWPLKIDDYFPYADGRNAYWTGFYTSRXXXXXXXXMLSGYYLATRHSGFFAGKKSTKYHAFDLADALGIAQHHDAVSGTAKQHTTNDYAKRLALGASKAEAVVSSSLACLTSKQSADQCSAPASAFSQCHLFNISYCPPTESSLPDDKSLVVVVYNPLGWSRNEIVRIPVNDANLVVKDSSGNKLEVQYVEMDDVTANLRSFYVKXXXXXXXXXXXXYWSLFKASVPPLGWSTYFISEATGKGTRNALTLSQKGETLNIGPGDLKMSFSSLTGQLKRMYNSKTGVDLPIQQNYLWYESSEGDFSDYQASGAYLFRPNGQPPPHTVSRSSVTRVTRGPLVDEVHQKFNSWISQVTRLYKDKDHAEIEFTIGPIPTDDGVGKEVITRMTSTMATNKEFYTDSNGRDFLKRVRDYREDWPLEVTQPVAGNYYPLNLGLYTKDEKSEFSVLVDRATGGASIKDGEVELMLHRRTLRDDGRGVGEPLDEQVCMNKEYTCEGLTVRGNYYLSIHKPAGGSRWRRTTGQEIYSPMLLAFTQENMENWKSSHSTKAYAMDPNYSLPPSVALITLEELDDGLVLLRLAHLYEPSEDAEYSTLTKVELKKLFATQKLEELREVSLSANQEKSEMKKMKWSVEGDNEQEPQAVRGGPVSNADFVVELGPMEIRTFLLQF

Alpha-galactosidase = target: T4, Alpha-galactosidase (Escherichia coli, UniProt P16551); assay: Inhibition of Escherichia coli alpha-galactosidase using p-nitrophenyl-alpha-D-galactopyranoside as substrate preincubated for 1 hr followed by substrate addition measured after 10 mins by spectrophotometric method
T4 sequence (P16551 whole entry): T2 sequence (whole entry)

Aspergillus niger = assay: Inhibition of Aspergillus niger amyloglucosidase at 1 mM using starch as substrate after 10 mins by Miller method

| SMILES | IC50 (Alpha-glucosidase) [µM] | IC50 [1] [µM] | inhibition [2] | IC50 (Alpha-mannosidase) [µM] | IC50 (Alpha-galactosidase) [µM] | inhibition (Aspergillus niger) |
| --- | --- | --- | --- | --- | --- | --- |
| OCCN1C[C@H](O)[C@@H](O)[C@H](O)[C@H]1CO [MIGLITOL] | 57.1 | 201 | inactive |  |  |  |
| OC[C@@H]1N[C@H]([C@@H](O)CO)[C@@H]1O | 53.7 | 78.2 |  | 76 | 54.6 |  |
| OC[C@@H]1N[C@H](CO)[C@@H]1O | 89.4 | 817 | inactive | 200 |  |  |
| CN1[C@H](C(=O)O)[C@H](O)[C@@H]1CO | 64.6 |  | inactive | 83.8 |  | inactive |
